The values that follow come from US8541449B2, “Substituted isoquinolines and isoquinolinones as Rho kinase inhibitors” (Sanofi, priority 2008, dated 2013).

What all share (type): biochemical
In test [1] the target is T1, human recombinant ROCK II (Homo sapiens, UniProt O75116).
T1 construct: N-terminal His6-tagged recombinant human ROCK-II residues 11-552; His6 (N); purchased Millipore GmbH, Schwalbach, Germany
Briefly: Determination of Rho kinase inhibition (Caliper peptide phosphorylation assay). The settings on record: 60 min at 32° C., negative decadal logarithm of the IC50. As for the experimental part:
Determination of Rho Kinase Inhibition
To measure Rho-kinase inhibition, IC50 values were determined according to the following protocol:
Active human recombinant ROCK II (N-terminal His6-tagged recombinant human ROCK-II residues 11-552) was purchased from Millipore GmbH, Schwalbach, Germany. The peptide substrate, Fluorescein-[…]-COOH, was obtained from JPT Peptide Technologies, Berlin, Germany. Adenosine-5′-triphosphate (ATP), bovine serum albumine (BSA), dimethylsulphoxide (DMSO), 4-(2-Hydroxyethyl)piperazine-1-ethanesulfonic acid (Hepes), Brij-35, dithiothreitol (DTT) and Pluronic F-68 were purchased from Sigma-Aldrich, Munich, Germany. Tris(hydroxymethyl)-aminomethane (Tris), magnesium chloride, NaOH, 1M HCl and EDTA were obtained from Merck Biosciences, Darmstadt, Germany. “Complete” protease inhibitor was from Roche Diagnostics, Mannheim, Germany.
(§1) Test compounds were diluted to the appropriate concentrations in buffer 1 (25 mM Tris-HCl, pH 7.4, 5 mM MgCl2, 2 mM DTT, 0.02% (w/v) BSA, 0.01% Pluronic F-68 and 3% DMSO). The ROCK II enzyme was diluted to a concentration of 100 ng/mL in buffer 2 (25 mM Tris-HCl, pH 7.4, 5 mM MgCl2, 2 mM DTT and 0.02% (w/v) BSA). The peptide substrate and ATP were diluted to concentrations of 3 μM and 120 μM, respectively, in the buffer 2. Two μl of the compound solution were mixed with 2 μl of the diluted enzyme in a 384-well small volume microtiter plate (Greiner, Bio-One, Frickenhausen, Germany), and the kinase reaction was initiated by addition of 2 μl of the solution containing peptide substrate and ATP. After 60 min incubation at 32° C., the reaction was stopped by addition of 20 μl of a solution containing 100 mM Hepes-NaOH, pH 7.4, 0.015% (v/v) Brij-35, 45 mM EDTA and 0.227% chip coating reagent 1 (Caliper Lifescience Inc, Hopkinton, Mass.). Phosphorylation of the substrate peptide was then detected on a Caliper 3000 instrument essentially as described by Pommereau et al (J. Biomol. Screening 9(5), 409-416, 2004). Separation conditions were as follows: Pressure −1.3 psi, upstream voltage −1562 V, downstream voltage −500 V, sample sip time 200 ms. Positive controls (buffer 1 instead of compound) and negative controls (buffer 1 instead of compound and buffer 2 instead of ROCK II) were run in parallel on each plate.
The following products/compounds were tested in said assay by using the respective form (salt or free base) obtained as in the examples described above and the following activities were measured

Test [2] deals with T2, recombinant human PKA (Homo sapiens, UniProt P17612).
T2 construct: Active recombinant human PKA (residues 1-351, N-terminal His-tag); His-tag (N); purchased Invitrogen, Karlsruhe, Germany
Briefly: Determination of Protein Kinase A inhibition (Caliper peptide phosphorylation assay). The settings on record: recombinant human PKA versus ROCK II. How it is done: (§2) Determination of Protein Kinase A and Protein Kinase G Inhibition
(§3) To measure PKA and PKG1-beta inhibition, IC50 values were determined according to the following protocol:
(§4) Active recombinant human PKG1-beta (full-length, with N-terminal His-tag) was purchased from Millipore GmbH, Schwalbach, Germany. Active recombinant human PKA (residues 1-351, N-terminal His-tag) was obtained from Invitrogen, Karlsruhe, Germany. The peptide substrate, Fluorescein-[…]-COOH, was obtained from JPT Peptide Technologies, Berlin, Germany. Adenosine-5′-triphosphate (ATP), bovine serum albumine (BSA), dimethylsulphoxide (DMSO), 4-(2-Hydroxyethyl)piperazine-1-ethanesulfonic acid (Hepes), Brij-35, dithiothreitol (DTT) and Pluronic F-68 were purchased from Sigma-Aldrich, Munich, Germany. Tris(hydroxymethyl)-aminomethane (Tris), magnesium chloride, NaOH, 1M HCl and EDTA were obtained from Merck Biosciences, Darmstadt, Germany. “Complete” protease inhibitor was from Roche Diagnostics, Mannheim, Germany.
as §1, with “PKG1-beta and PKA were” for “The ROCK II enzyme was”, “concentrations” for “a concentration”, “150 ng/ml and 30 ng/ml, respectively,” for “100 ng/mL”, “2.” for “2 (25 mM Tris-HCl, pH 7.4, 5 mM MgCl2, 2 mM DTT and 0.02% (w/v) BSA).”, “kinase solution)” for “ROCK II)”, “plate. The following products/compounds were tested in said assay by using the respective form (salt or free base) obtained as in the examples described above and the following activities were measured.” for “plate.”

Test [3] concerns the target T3, recombinant human PKG1-beta (Homo sapiens, UniProt Q13976).
T3 construct: Active recombinant human PKG1-beta (full-length, with N-terminal His-tag); His-tag (N); purchased Millipore GmbH, Schwalbach, Germany
T3 sequence (Q13976 1-686 isoform Q13976-2): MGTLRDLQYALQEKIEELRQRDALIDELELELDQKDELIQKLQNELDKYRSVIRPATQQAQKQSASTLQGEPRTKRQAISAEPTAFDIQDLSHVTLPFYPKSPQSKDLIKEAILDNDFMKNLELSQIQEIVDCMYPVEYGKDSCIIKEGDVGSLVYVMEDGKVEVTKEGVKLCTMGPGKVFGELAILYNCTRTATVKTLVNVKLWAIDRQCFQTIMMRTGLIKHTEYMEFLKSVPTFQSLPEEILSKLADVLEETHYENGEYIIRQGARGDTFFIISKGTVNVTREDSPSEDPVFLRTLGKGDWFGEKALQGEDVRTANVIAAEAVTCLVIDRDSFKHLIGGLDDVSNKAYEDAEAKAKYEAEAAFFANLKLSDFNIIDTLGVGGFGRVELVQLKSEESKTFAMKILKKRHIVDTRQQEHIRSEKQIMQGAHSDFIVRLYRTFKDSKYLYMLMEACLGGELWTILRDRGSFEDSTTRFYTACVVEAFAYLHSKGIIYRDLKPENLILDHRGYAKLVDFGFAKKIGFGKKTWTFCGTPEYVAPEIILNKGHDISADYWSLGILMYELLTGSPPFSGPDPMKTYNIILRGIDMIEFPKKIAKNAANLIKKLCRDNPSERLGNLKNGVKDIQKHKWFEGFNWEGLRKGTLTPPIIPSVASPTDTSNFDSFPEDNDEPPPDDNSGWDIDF
Briefly: Determination of Protein Kinase G inhibition (Caliper peptide phosphorylation assay). The settings on record: recombinant human PKG1-beta versus ROCK II. As for the experimental part:
as §2, §3, §4
as §1, with “PKG1-beta and PKA were” for “The ROCK II enzyme was”, “concentrations” for “a concentration”, “150 ng/ml and 30 ng/ml, respectively,” for “100 ng/mL”, “2.” for “2 (25 mM Tris-HCl, pH 7.4, 5 mM MgCl2, 2 mM DTT and 0.02% (w/v) BSA).”, “kinase solution)” for “ROCK II)”, “plate. The following products/compounds were tested in said assay by using the respective form (salt or free base) obtained as in the examples described above and the following activities were measured.” for “plate.”

A value given as a limit tells only on which side of the number the result lay.

By IC50 is commonly meant the midpoint of a concentration-inhibition curve.

T1 sequence (O75116 11-552): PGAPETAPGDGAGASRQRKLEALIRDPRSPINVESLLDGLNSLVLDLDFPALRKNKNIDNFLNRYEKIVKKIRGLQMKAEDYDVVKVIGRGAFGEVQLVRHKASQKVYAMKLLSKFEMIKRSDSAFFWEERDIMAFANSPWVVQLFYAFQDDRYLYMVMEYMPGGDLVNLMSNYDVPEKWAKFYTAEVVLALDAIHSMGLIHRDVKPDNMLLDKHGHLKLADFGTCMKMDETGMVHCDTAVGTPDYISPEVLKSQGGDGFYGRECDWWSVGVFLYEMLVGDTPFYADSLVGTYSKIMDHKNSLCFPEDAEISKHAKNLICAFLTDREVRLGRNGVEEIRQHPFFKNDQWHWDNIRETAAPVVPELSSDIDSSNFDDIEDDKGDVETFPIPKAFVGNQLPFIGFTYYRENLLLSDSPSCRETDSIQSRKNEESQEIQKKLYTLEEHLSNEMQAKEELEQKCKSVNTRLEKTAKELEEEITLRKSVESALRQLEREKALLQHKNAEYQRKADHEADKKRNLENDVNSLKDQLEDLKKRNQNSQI

Turning to `CCC(N)[C@]1(c2ccccc2)CC[C@H](Oc2ccc3cnccc3c2Cl)CC1` (stereo partly drawn) [Example 92, cis-1-[4-(5-Chloro-isoquinolin-6-yloxy)-1-phenyl-cyclohexyl]-propylamine], the pIC50 result in test [1] is on record as “+++++ (6.0≦pIC50<7.0)”.

As to `CCC(N)[C@]1(c2ccc(F)c(F)c2)CC[C@H](Oc2cc3cc[nH]c(=O)c3cc2C)CC1` (stereo partly drawn) [Example 65, cis-6-[4-(1-Amino-propyl)-4-(3,4-difluoro-phenyl)-cyclohexyloxy]-7-methyl-2H-isoquinolin-1-one], the pIC50 result in test [1] is given as “+++++ (6.0≦pIC50<7.0)”.

Regarding `COCCC(N)[C@]1(c2ccc(F)cc2)CC[C@H](Oc2cc3cc[nH]c(=O)c3cc2Cl)CC1` (stereo partly drawn) [Example 115, cis-6-[4-(1-Amino-3-methoxy-propyl)-4-(4-fluoro-phenyl)-cyclohexyloxy]-7-chloro-2H-isoquinolin-1-one], the pIC50 entry in test [1] was “+++++ (6.0≦pIC50<7.0)”.

As to `COc1ccc(C(C)(N)C2CCC(Oc3cc4cc[nH]c(=O)c4cc3Cl)CC2)cc1` (centres unmarked) [Example 117, 6-{4-[1-Amino-1-(4-methoxy-phenyl)-ethyl]-cyclohexyloxy}-7-chloro-2H-isoquinolin-1-one], in test [2], the “Selectivity against PKA” value is given as more than 300. Further, in test [3], the “Selectivity against PKG” value was more than 10.

As for `CCC(N)(CC)C1CCC(Oc2cc3cc[nH]c(=O)c3cc2Cl)CC1` (single isomer, unassigned) [Example 119, 6-{4-[1-Amino-1-ethyl-propyl]-cyclohexyloxy}-7-chloro-2H-isoquinolin-1-one], in test [1], the half-maximal inhibitory concentration (IC50) is 100 to 1000 nM.

On to `CC(N)(C1CCCC1)C1CCC(Oc2cc3cc[nH]c(=O)c3cc2Cl)CC1` (single isomer, unassigned) [Example 118, 6-{4-[1-Amino-1-cyclopentyl-ethyl]-cyclohexyl-oxy}-7-chloro-2H-isoquinolin-1-one], for which, in test [1], the IC50 is 100 to 1000 nM.

Regarding `CCC(N)[C@]1(c2ccc(F)c(F)c2)CC[C@H](Oc2c(F)cc3c(=O)[nH]ccc3c2C)CC1` (stereo partly drawn) [Example 67, cis-6-[4-(1-Amino-propyl)-4-(3,4-difluoro-phenyl)-cyclohexyloxy]-7-fluoro-5-methyl-2H-isoquinolin-1-one], the pIC50 entry in test [1] is given as “+++++ (6.0≦pIC50<7.0)”.

Take `NC(c1ccccc1)C1CCC(Oc2cc3cc[nH]c(=O)c3cc2Cl)CC1` (single isomer, unassigned) [Example 40, 6-[4-(Amino-phenyl-methyl)-cyclohexyloxy]-7-chloro-2H-isoquinolin-1-one]: the IC50 in test [1] was 100 to 1000 nM.

As for `CCCC(C)(N)C1CCC(Oc2cc3cc[nH]c(=O)c3cc2Cl)CC1` (single isomer, unassigned) [Example 124, 6-{4-[1-Amino-1-methyl-n-butyl]-cyclohexyloxy}-7-chloro-2H-isoquinolin-1-one], the “Selectivity against PKA” value in test [2] was more than 100. Further, in test [3], the “Selectivity against PKG” value was more than 10.

In the case of `CCC(N)[C@]1(c2ccccc2)CC[C@H](Oc2cc3ccncc3cc2Cl)CC1` (stereo partly drawn) [Example 89, cis-1-[4-(7-Chloro-iso-quinolin-6-yloxy)-1-phenyl-cyclohexyl]-propylamine], the pIC50 entry in test [1] is recorded as “+++++ (6.0≦pIC50<7.0)”.

With `CCC(N)[C@]1(c2ccccc2)CC[C@H](Oc2cc3ccnc(N)c3cc2Cl)CC1` (stereo partly drawn) [Example 111, cis-6-[4-(1-Amino-propyl)-4-phenyl-cyclohexyloxy]-7-chloro-isoquinolin-1-ylamine], the pIC50 result in test [1] is on record as “++++++ (7.0≦pIC50<8.0)”.

On to `CCC(N)[C@]1(c2ccccc2)CC[C@H](Oc2c(C)cc3cnccc3c2C)CC1` (stereo partly drawn) [Example 90, cis-1-[4-(5,7-Dimethyl-isoquinolin-6-yloxy)-1-phenyl-cyclohexyl]-propylamine], for which the pIC50 entry in test [1] is on record as “+++++ (6.0≦pIC50<7.0)”.

As to `CCC(N)[C@]1(c2ccccc2)C[C@H]2C[C@@H]1CC2Oc1cc2cc[nH]c(=O)c2cc1Cl` (stereo partly drawn) [Example 101, 6-[(1R,4R,5R)-5-(1-Amino-propyl)-5-phenyl-bicyclo[2.2.1]hept-2-yloxy]-7-chloro-2H-isoquinolin-1-one], the pIC50 entry in test [1] was “+++++ (6.0≦pIC50<7.0)”.

For the compound `CCC(N)[C@]1(c2ccccc2)CC[C@H](Oc2cc3ccncc3cc2Br)CC1` (stereo partly drawn) [Example 94, cis-1-[4-(7-Bromo-isoquinolin-6-yloxy)-1-phenyl-cyclohexyl]-propylamine], in test [1], the pIC50 entry was “+++++ (6.0≦pIC50<7.0)”.

As for `CCC(N)[C@]1(c2ccc(C)c(OC)c2)CC[C@H](Oc2cc3cc[nH]c(=O)c3cc2Cl)CC1` (stereo partly drawn) [Example 64, cis-6-[4-(1-Amino-propyl)-4-(3-methoxy-4-methyl-phenyl)-cyclohexyloxy]-7-chloro-2H-isoquinolin-1-one], the “Selectivity against PKA” value in test [2] is more than 1000. For the same compound, the “Selectivity against PKG” value in test [3] is more than 100.

For `NC(C1CCC(Oc2cc3cc[nH]c(=O)c3cc2Cl)CC1)C1CC1` (single isomer, unassigned) [Example 132, 6-[4-(Amino-cyclopropyl-methyl)-cyclohexyloxy]-7-chloro-2H-isoquinolin-1-one], in test [2], the “Selectivity against PKA” value is given as more than 100. Moreover, the “Selectivity against PKG” value in test [3] is recorded as more than 10.
